Results on eight compounds are retold here after US20120095062A1, “TRICYCLIC COMPOUNDS, COMPOSITIONS, AND METHODS” (Pfizer Inc., priority 2007, published 2012).

Where two headings read alike, the source gives them in different places.

Data set [1] concerns IL-6, Human A549 lung epithelial cells. The experiment in a line: IL-6 inhibition in IL-1β-stimulated A549 cells. Type of data set: cell-based. Particulars: for inhibition: A549, A549 cells, Prednisolone (1 μM) = 100% inhibition control. How it is done: Human A549 lung epithelial cells (American Type Culture Collection, Rockville, Md.) were cultured in Kaighn's F-12K medium with penicillin-streptomycin (10 U/mL) and 10% heat-inactivated fetal bovine serum (all from Invitrogen, Grand Island, N.Y.). A549 cells were plated at a density of 30,000 cells/well in 96-well plates and incubated overnight at 37° C. and with 5% CO2. The cells were serum-starved by replacing the growth medium with serum-free Kaighn's F-12K medium with penicillin-streptomycin (10 U/mL) and, again, incubating overnight at 37° C. and with 5% CO2. On the third day, the medium was replaced with fresh serum-free medium and the cells were incubated with or without compound (vehicle was DMSO at 0.1% maximum concentration) for approximately 1 hour and then stimulated with 1 ng/mL recombinant human IL-1β (R&D Systems, Minneapolis, Minn.) for 20 hours at 37° C. and with 5% CO2. Cell supernatants were collected for determination of IL-6 levels using MSD (Meso Scale Discovery, Gaithersburg, Md.) 96-well Single Spot plates as per the manufacturer's instructions. Plates were read with an MSD Sector Imager 6000. […] Vehicle was used to define the 0% inhibition control. Percent inhibition for each compound concentration, relative to these controls, was calculated using Excel (Microsoft, Redmond, Wash.). IC50 values were generated using GraFit 5.0 data analysis software (Erithacus Software Ltd., Surrey, UK).

In data set [2] the test system is Mouse Collagen-induced arthritis. The experiment in a line: Therapeutic mouse collagen-induced arthritis (mCIA) model. Particulars: mice, dosing day 34 through day 49, read-out: Therapeutic mCIA (ED50 dose). Type of data set: in vivo. The text has this:
Mouse Collagen-induced arthritis is a commonly used chronic, preclinical model of rheumatoid arthritis in which joint swelling and bone destruction occur following immunization with type II collagen. Reduction of disease incidence and severity has been shown previously to be predictive of disease-modification and signs and symptoms mitigation, respectively, in a clinical setting.
In the therapeutic mCIA model, induction of disease incidence and severity was synchronized via LPS stimulation. Male […] mice were immunized with 100 ug of bovine type II collagen (bCII) on day 0. All mice received an intraperitoneal injection of 20 μg of LPS on day 28 and disease was allowed to develop through day 34. At day 34, all mice had disease (incidence=100%) with an average severity score of seven. Dosing of compounds was initiated in the therapeutic mode on day 34 and continued through day 49. Different treatments were compared by measuring the decrease in incidence (i.e., resolution of disease) and the decrease in severity of paw swelling over time.

Data set [3] deals with LPS-induced serum TNFα. The experiment in a line: LPS-induced serum TNFα suppression, 28-day repeat dose mouse model. The format is in vivo. Particulars: 672 h, mice, oral gavage 28 days.
In data set [4] the test system is Serum osteocalcin. The experiment in a line: Serum osteocalcin suppression, 28-day repeat dose mouse model. Type of data set: in vivo, mice. The conditions noted are these: for ED50: Mus musculus, 672 h, mice, oral gavage 28 days, serum osteocalcin.
A short description of data set [5]: Plasma exposure (AUC) in the mouse. Type of data set: in vivo.
In data set [6] the test system is TNFα, U937 cells. The experiment in a line: TNFα inhibition in LPS-stimulated differentiated U937 cells. The format is cell-based. Particulars: Homo sapiens. The method, then:
Cells were differentiated to a monocyte/macrophage phenotype with phorbol 12-myristate 13-acetate (Sigma-Aldrich, St. Louis, Mo.), 20 ng/mL, overnight. […] Following recovery, the cells were scraped, counted, and plated in accordance to the experimental design prior to stimulation with LPS, as described below. U937 cells were differentiated and plated at a density of 200,000 cells/well in 96-well plates. […] Louis, Mo.) for four hours at 37° C. and with 5% CO2. Cell supernatants were collected for determination of TNFα levels using an in-house sandwich-type ELISA. Mouse anti-human TNFα monoclonal antibody (clone 28401.111) and biotinylated goat anti-human TNFα (R&D Systems, Minneapolis, Minn.) were used as the capture and detection antibodies, respectively. Streptavidin-horseradish peroxidase (HRP) (R&D Systems, Minneapolis, Minn.) and K-Blue Substrate/Red Stop (Neogen, Lexington, Ky.) were used as the detection system. Absorbance was measured at 650 nm. TNFα concentrations were interpolated from a human TNFα recombinant protein (R&D Systems, Minneapolis, Minn.) standard curve using a four parameter logistics model by Magellan 4.11 data analysis software (Tecan, Durham, N.C.). […] Vehicle was used to define the 0% inhibition control. Percent inhibition for each concentration of compound, relative to these controls, was calculated using Excel (Microsoft, Redmond, Wash.).

Data set [7] deals with Cortical bone formation rate. The experiment in a line: Cortical bone histomorphometry, bone formation rate (BFR). The format is in vivo, mice. Particulars: 28-day repeat dose model; the 11th table. The method, then:
Sigma-Aldrich, St. […] Calcein incorporates into the bone mineral and allows measurement of bone formation rate. Calcein was dissolved in 2% sodium bicarbonate. During the tissue harvest, the left tibiae were excised and cleaned for cortical histomorphometry measurements. After all skin and muscle were removed, tibiae were placed in 70% ethanol (4° C.) in the dark for a minimum of 24 hours. Ground transverse sections were used for histomorphometric analysis of cortical bone. Bones were sectioned using a low-speed saw (lsomet, Buehler, Lake Bluff, Ill.) equipped with a diamond wafer blade. The end of each tibia was removed proximal to tibia-fibula synostosis and a […] cross-section was cut. Using a roughened glass plate and a cork, sections were ground to […] until transparent and all labels were distinguishable under a fluorescent microscope. […] Sigma-Aldrich, St. Louis, Mo.). Sections were mounted using Eukitt Quick Mounting Medium (#03989, Sigma-Aldrich, St. Louis, Mo.) after which coverslip was applied. […] Bone formation rate was calculated by the following equation: (Inter-label width/Label interval)*(Labeled perimeter/Bone perimeter). At least five samples were measured from each treatment group in each study.

Where [8] appears, read: A549, 20 h, A549 cells, 1 ng/mL IL-1β, 20 hours, read-out: IL-6 IC50.

One may read the IC50 as the point on the concentration scale where inhibition reaches its midpoint. As usually defined, the inhibition is the change of the read-out against control, counted positive when it falls. A word on the ED50: it is the dose that gives a 50% effect, or the effect in half of the subjects. `Cc1ncccc1NC(=O)c1ccc2c(c1)C=C[C@@H]1C[C@@](O)(C(F)(F)F)CC[C@@]21Cc1ccccc1` [Comparator I]: the IC50 in data set [1] (setting [8]) came to 2.8 nM. Further, the inhibition in data set [1] is 67.5%. Further, the ED50 in data set [2] stood at 17 mg/kg; in data set [3], 0.73 mg/kg; in data set [4], 5.2 mg/kg.

Regarding `Cc1ncc(NC(=O)c2ccc3c(c2)CC[C@@H]2C[C@@](O)(CCC(F)(F)F)CC[C@@]32Cc2ccccc2)c(C)n1` [Comparator J, (4βS,7S,8αR)-4β-benzyl-N-(2,4-dimethylpyrimidin-5-yl)-7-hydroxy-7-(3,3,3-trifluoropropyl)-4β,5,6,7,8,8α,9,10-octahydrophenanthrene-2-carboxamide], in data set [1] (setting [8]), the IC50 is 291 nM. Further, in data set [1], the inhibition was 55%. In addition, the ED50 in data set [2] stood at 3 mg/kg; in data set [3] it was 0.09 mg/kg; in data set [4], 0.73 mg/kg.

Regarding `Cc1ncccc1NC(=O)c1ccc2c(c1)CC[C@@H]1C[C@@](O)(C(F)(F)F)CC[C@@]21Cc1ccccc1` [Example 1, (4βS,7R,8αR)-4β-benzyl-7-hydroxy-N-(2-methylpyridin-3-yl)-7-(trifluoromethyl)-4β,5,6,7,8,8α,9,10-octahydrophenanthrene-2-carboxamide], the “AUC(0-4 hr) as share of the AUC(0-24 hr) values” in data set [5] is on record as “more than 95%”.

For `Cc1cnc(NC(=O)c2ccc3c(c2)CC[C@@H]2C[C@@](O)(C(F)(F)F)CC[C@@]32Cc2ccccc2)c(C)n1` [Comparator B, (4βS,7R,8αR)-4β-benzyl-N-(3,5-dimethylpyrazin-2-yl)-7-hydroxy-7-(trifluoromethyl)-4β,5,6,7,8,8α,9,10-octahydrophenanthrene-2-carboxamide], in data set [1] (setting [8]), the IC50 came out at 4 nM. The inhibition in data set [1] is 75.8%. In addition, the median effective dose (ED50) came out at 2.9 mg/kg in data set [2], 1.64 mg/kg in data set [3] and 2.39 mg/kg in data set [4].

With `Cc1ncccc1NC(=O)c1ccc2c(c1)CC[C@@H]1C[C@@](O)(CCC(F)(F)F)CC[C@@]21Cc1ccccc1` [Comparator C, (4βS,7R,8αR)-4β-benzyl-7-hydroxy-N-(2-methylpyridin-3-yl)-7-(3,3,3-trifluoropropyl)-4β,5,6,7,8,8α,9,10-octahydrophenanthrene-2-carboxamide], in data set [1] (setting [8]), the IC50 came out at 1.1 nM. The inhibition in data set [1] came out at 82.6%. Moreover, the values for the ED50 in data set [2], in data set [3] and in data set [4] were 2 mg/kg, 0.27 mg/kg and 1.01 mg/kg, respectively.

Turning to `Cc1ncccc1NC(=O)c1ccc2c(c1)[C@H](O)C[C@@H]1C[C@@](O)(C(F)(F)F)CC[C@@]21Cc1ccccc1` [Comparator F, (4βS,7R,8αR,10R)-4β-benzyl-7,10-dihydroxy-N-(2-methylpyridin-3-yl)-7-(trifluoromethyl)-4β,5,6,7,8,8α,9,10-octahydrophenanthrene-2-carboxamide], the IC50 in data set [1] (setting [8]) was determined as 7 nM. Besides, the inhibition in data set [1] was found to be 83.3%. The ED50 in data set [2] was more than 10 mg/kg; in data set [3], 2.11 mg/kg; in data set [4], 1.19 mg/kg.

For `C[C@]12C=CC(=O)C=C1CC[C@@H]1[C@@H]2[C@@H](O)C[C@@]2(C)[C@H]1CC[C@]2(O)C(=O)CO` [Prednisolone], the IC50 came out at 4.2 nM in data set [1] (setting [8]); 4.6 nM in data set [1] (A549, value in brackets, footnote a: additional results that were found, read-out: IL-6 IC50 (nM), additional result); 14.9 nM in data set [6] (U-937, 4 h, U937 cells, 100 ng/mL LPS, four hours, read-out: TNFα IC50); 15.6 nM in data set [6] (U-937, value in brackets, footnote a: additional results that were found, read-out: TNFα IC50 (nM), additional result). The inhibition in data set [1] worked out at 102%. The ED50 in data set [2] was found to be 1.1 mg/kg; in data set [3], 0.9 mg/kg; in data set [4], 1 mg/kg. The Serum osteocalcin (OC) EAUC50 in data set [4] (28-day repeat dose model, the 11th table) worked out at 560 ng·h/mL. Further, the Cortical bone formation rate (BFR) EAUC50 in data set [7] was 100 ng·h/mL. Further, in data set [5], the “AUC(0-4 hr) as share of the AUC(0-24 hr) values” was “more than 95%”.

On to `Cc1ncccc1NC(=O)c1ccc2c(c1)C(=O)C[C@@H]1C[C@@](O)(C(F)(F)F)CC[C@@]21Cc1ccccc1` [Comparator E, (4β,7R,8αS)-4β-benzyl-7-hydroxy-N-(2-methylpyridin-3-yl)-10-oxo-7-(trifluoromethyl)-4β,5,6,7,8,8α,9,10-octahydrophenanthrene-2-carboxamide], for which, in data set [1] (setting [8]), the IC50 was found to be 1.1 nM. For the same compound, the inhibition in data set [1] is 79.7%. For the same compound, the ED50 in data set [2] worked out at 0.5 mg/kg; in data set [3], 0.14 mg/kg; in data set [4], 0.17 mg/kg.
